The values below are quoted from earlier work in patent US12150952B2, “Formulation for the use in the simultaneous treatment of coccidial infections and iron deficiencies” (Elanco Animal Health GmbH, priority 2018, dated 2024).

Read-outs that look alike come from different tables or passages of the source.

The conditions of data set [1]: value to be understood as stated ±1.
The next data set relates to Isospora suis. The note with it: coccidiosis.

`CCCCC(CC)COC(=O)CC(C(=O)OCC(CC)CCCC)S(=O)(=O)[O-].[Na+]` (stereo not drawn) [Sodium docusate]: the HLB result in data set [1] is on record as “about 10”; in data set [1] (listed as Sodium Docusate), 10.
Turning to `CCCc1ncc(C[n+]2ccccc2C)c(N)n1` [amprolium], the “preventing the disease in experimentally infected piglets” value (shortened to “preventing the disease”) in the data set with Isospora suis is on record as “not been successful in preventing the disease”.
For `O=C1OCCN1/N=C/c1ccc([N+](=O)[O-])o1` [furazolidon], the “preventing the disease” value in the data set on Isospora suis was “not been successful in preventing the disease”.
Take `CC[C@@]1([C@@H]2O[C@@H]([C@H]3O[C@@](O)(CO)[C@H](C)C[C@@H]3C)C[C@@H]2C)CC[C@H]([C@]2(C)CC[C@]3(C[C@H](O)[C@@H](C)[C@@H]([C@@H](C)[C@@H](OC)[C@H](C)C(=O)O)O3)O2)O1` [monensin]: the “preventing the disease” value in the data set on Isospora suis was “not been successful in preventing the disease”.
As for Sorbitan Monooleate, in data set [1], the HLB entry was “about 4.6”.
